Results as given in patent US8952163B2, “Substituted hydroxamic acids and uses thereof” (Millennium Pharmaceuticals, Inc., priority 2010, dated 2015).

Molecular target: T1, purified human HDAC6 (Homo sapiens, UniProt Q9UBN7)
T1 construct: purchased BPS Bioscience 5006
T1 sequence (Q9UBN7 1-1215): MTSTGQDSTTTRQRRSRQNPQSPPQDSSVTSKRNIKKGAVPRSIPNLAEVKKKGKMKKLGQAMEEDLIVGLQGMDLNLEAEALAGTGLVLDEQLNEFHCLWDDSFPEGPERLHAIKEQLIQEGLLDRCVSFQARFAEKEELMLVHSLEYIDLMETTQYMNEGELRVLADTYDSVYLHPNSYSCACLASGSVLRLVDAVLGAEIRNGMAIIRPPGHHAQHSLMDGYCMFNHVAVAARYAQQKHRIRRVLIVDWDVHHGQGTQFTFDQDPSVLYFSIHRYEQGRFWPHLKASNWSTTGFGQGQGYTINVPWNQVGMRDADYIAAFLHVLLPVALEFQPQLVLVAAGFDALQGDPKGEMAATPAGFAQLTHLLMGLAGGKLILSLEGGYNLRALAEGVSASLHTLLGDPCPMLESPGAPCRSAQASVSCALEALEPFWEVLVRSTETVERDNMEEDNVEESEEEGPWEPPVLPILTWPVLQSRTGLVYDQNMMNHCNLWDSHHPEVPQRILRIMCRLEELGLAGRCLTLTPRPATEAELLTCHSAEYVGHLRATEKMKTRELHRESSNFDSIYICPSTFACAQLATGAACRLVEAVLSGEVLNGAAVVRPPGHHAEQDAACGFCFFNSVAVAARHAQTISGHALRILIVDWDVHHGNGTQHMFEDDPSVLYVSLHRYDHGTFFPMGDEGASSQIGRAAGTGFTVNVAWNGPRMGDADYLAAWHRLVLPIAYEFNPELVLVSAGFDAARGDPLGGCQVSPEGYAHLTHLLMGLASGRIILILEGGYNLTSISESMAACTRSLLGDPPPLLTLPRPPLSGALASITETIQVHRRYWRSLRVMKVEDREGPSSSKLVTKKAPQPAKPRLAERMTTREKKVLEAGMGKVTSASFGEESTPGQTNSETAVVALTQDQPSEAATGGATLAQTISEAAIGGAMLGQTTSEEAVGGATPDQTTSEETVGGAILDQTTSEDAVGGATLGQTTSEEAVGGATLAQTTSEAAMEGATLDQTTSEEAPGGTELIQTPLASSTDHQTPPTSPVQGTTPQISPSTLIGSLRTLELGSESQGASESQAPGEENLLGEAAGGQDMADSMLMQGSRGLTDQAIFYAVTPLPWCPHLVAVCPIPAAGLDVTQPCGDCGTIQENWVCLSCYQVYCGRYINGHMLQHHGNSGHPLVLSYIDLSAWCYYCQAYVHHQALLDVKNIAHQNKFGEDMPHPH
Assay: HDAC6 Enzyme Assay
Format: biochemical
Conditions: test compound at 1.235 μM; substrate Ac-Arg-Gly-Lys(Ac)-AMC, 1 hour at 30° C.; read-out: Percent Inhibition at 1.235 μM
Method: To measure the inhibition of HDAC6 activity, purified human HDAC6 (BPS Bioscience; Cat. No. 5006) is incubated with substrate Ac-Arg-Gly-Lys(Ac)-AMC peptide (Bachem Biosciences; Cat. No. I-1925) for 1 hour at 30° C. in the presence of test compounds or vehicle DMSO control. The reaction is stopped with the HDAC inhibitor trichostatin A (Sigma; Cat. No. T8552) and the amount of Arg-Gly-Lys-AMC generated is quantitated by digestion with trypsin (Sigma; Cat. No. T1426) and subsequent measurement of the amount of AMC released using a fluorescent plate reader (Pherastar, BMG Technologies) set at Ex 340 nm and Em 460 nm. Concentration response curves are generated by calculating the fluorescence increase in test compound-treated samples relative to DMSO-treated controls, and percentage inhibition values at a single concentration or enzyme inhibition (IC50) values are determined from those curves. One skilled in the art will appreciate that the values generated either as percentage inhibition at a single concentration or IC50 values are subject to experimental variation.

| SMILES | inhibition at 1.235 µM |
| --- | --- |
| O=C(NO)c1cnc2c(c1)CN(C(=O)C13CC4CC(CC(C4)C1)C3)CC2 [Compound I-31, 6-[1-adamantylcarbonyl]-N-hydroxy-5,6,7,8-tetrahydro-1,6-naphthyridine-3-carboxamide] | 93.8% |
| O=C(NO)c1ccc2c(n1)CCN(Cc1ccccc1)C2 [Compound I-38, 6-benzyl-N-hydroxy-5,6,7,8-tetrahydro-1,6-naphthyridine-2-carboxamide] | 60.2% |
| O=C(NO)c1ccc2c(n1)CCN(C(=O)c1ccc(Cl)cc1)C2 [Compound I-33, 6-(4-chlorobenzoyl)-N-hydroxy-5,6,7,8-tetrahydro-1,6-naphthyridine-2-carboxamide] | 68.8% |
| O=C(NO)c1ccc2c(n1)CCN(C(=O)NC1CCCCC1)C2 [Compound I-17, N^6-cyclohexyl-N^2-hydroxy-7,8-dihydro-1,6-naphthyridine-2,6(5H)-dicarboxamide] | 41.2% |
| CC(C)(C)C(=O)N1CCc2nc(C(=O)NO)ccc2C1 [Compound I-46, 6-(2,2-dimethylpropanoyl)-N-hydroxy-5,6,7,8-tetrahydro-1,6-naphthyridine-2-carboxamide] | 59% |
| O=C(NO)c1cnc2c(c1)CN(C(=O)c1cc3ccccc3o1)CC2 [Compound I-44, 6-(1-benzofuran-2-ylcarbonyl)-N-hydroxy-5,6,7,8-tetrahydro-1,6-naphthyridine-3-carboxamide] | 94.9% |
| Cc1ccccc1NC(=O)N1CCc2nc(C(=O)NO)ccc2C1 [Compound I-8, N^2-hydroxy-N^6-(2-methylphenyl)-7,8-dihydro-1,6-naphthyridine-2,6(5H)-dicarboxamide] | 40.4% |
| O=C(NO)c1ccc2c(n1)CCN(C(=O)NCCc1ccccc1)C2 [Compound I-55, N^2-hydroxy-N^6-(2-phenylethyl)-7,8-dihydro-1,6-naphthyridine-2,6(5H)-dicarboxamide] | 58.3% |
| O=C(NO)c1ccc2c(n1)CCN(C(=O)C13CC4CC(CC(C4)C1)C3)C2 [Compound I-22, 6-[1-adamantylcarbonyl]-N-hydroxy-5,6,7,8-tetrahydro-1,6-naphthyridine-2-carboxamide] | 90.2% |
| O=C(NO)c1cnc2c(c1)CCN(C(=O)c1[nH]c3ccccc3c1-c1ccccc1)C2 [Compound I-37, N-hydroxy-7-[(3-phenyl-1H-indol-2-yl)carbonyl]-5,6,7,8-tetrahydro-1,7-naphthyridine-3-carboxamide] | 93.7% |
| O=C(NO)c1cnc2c(c1)CN(Cc1ccccc1)CC2 [Compound I-20, 6-benzyl-N-hydroxy-5,6,7,8-tetrahydro-1,6-naphthyridine-3-carboxamide] | 58.6% |
| O=C(NO)c1cnc2c(c1)CCN(C(=O)c1cc3ccccc3s1)C2 [Compound I-4, 7-(1-benzothien-2-ylcarbonyl)-N-hydroxy-5,6,7,8-tetrahydro-1,7-naphthyridine-3-carboxamide] | 97.2% |
| Cc1nc(C(=O)N2CCc3ncc(C(=O)NO)cc3C2)cs1 [Compound I-1, N-hydroxy-6-[(2-methyl-1,3-thiazol-4-yl)carbonyl]-5,6,7,8-tetrahydro-1,6-naphthyridine-3-carboxamide] | 87.8% |
| O=C(NO)c1ccc2c(n1)CCN(C(=O)Nc1ccc(-c3ccccc3)s1)C2 [Compound I-54, N^2-hydroxy-N^6-(5-phenyl-2-thienyl)-7,8-dihydro-1,6-naphthyridine-2,6(5H)-dicarboxamide] | 67.2% |
| Cc1nc(-c2ccccn2)sc1C(=O)N1CCc2ncc(C(=O)NO)cc2C1 [Compound I-23, N-hydroxy-6-[(4-methyl-2-pyridin-2-yl-1,3-thiazol-5-yl)carbonyl]-5,6,7,8-tetrahydro-1,6-naphthyridine-3-carboxamide] | 92% |
| CC(=O)N1CCc2nc(C(=O)NO)ccc2C1 [Compound I-2, 6-acetyl-N-hydroxy-5,6,7,8-tetrahydro-1,6-naphthyridine-2-carboxamide] | 34.1% |
| O=C(NO)c1ccc2c(n1)CCN(C(=O)c1cc3ccccc3o1)C2 [Compound I-14, 6-(1-benzofuran-2-ylcarbonyl)-N-hydroxy-5,6,7,8-tetrahydro-1,6-naphthyridine-2-carboxamide] | 89.9% |
| O=C(NO)c1cnc2c(c1)CCN(C(=O)C13CC4CC(CC(C4)C1)C3)C2 [Compound I-15, 7-[1-adamantylcarbonyl]-N-hydroxy-5,6,7,8-tetrahydro-1,7-naphthyridine-3-carboxamide] | 95.6% |
| CCCCOc1ccc(S(=O)(=O)N2CCc3nc(C(=O)NO)ccc3C2)cc1 [Compound I-60, 6-[(4-butoxyphenyl)sulfonyl]-N-hydroxy-5,6,7,8-tetrahydro-1,6-naphthyridine-2-carboxamide] | 75.8% |
| CCCCOc1ccc(S(=O)(=O)N2CCc3ncc(C(=O)NO)cc3C2)cc1 [Compound I-57, 6-[(4-butoxyphenyl)sulfonyl]-N-hydroxy-5,6,7,8-tetrahydro-1,6-naphthyridine-3-carboxamide] | 94.1% |

Continued, values first:

| inhibition at 1.235 µM | SMILES |
| --- | --- |
| 97.2% | O=C(NO)c1cnc2c(c1)CCN(C(=O)c1cc3ccccc3o1)C2 [Compound I-18, 7-(1-benzofuran-2-ylcarbonyl)-N-hydroxy-5,6,7,8-tetrahydro-1,7-naphthyridine-3-carboxamide] |
| 85% | CC(C)(C)C(=O)N1CCc2ncc(C(=O)NO)cc2C1 [Compound I-30, 6-(2,2-dimethylpropanoyl)-N-hydroxy-5,6,7,8-tetrahydro-1,6-naphthyridine-3-carboxamide] |
| 63.4% | O=C(NO)c1ccc2c(n1)CCN(C(=O)Nc1ccccc1)C2 [Compound I-51, N^2-hydroxy-N^6-phenyl-7,8-dihydro-1,6-naphthyridine-2,6(5H)-dicarboxamide] |
| 23.4% | Cc1onc(-c2ccccc2)c1NC(=O)N1CCc2nc(C(=O)NO)ccc2C1 [Compound I-43, N^2-hydroxy-N^6-(5-methyl-3-phenylisoxazol-4-yl)-7,8-dihydro-1,6-naphthyridine-2,6(5H)-dicarboxamide] |
| 60.4% | O=C(NO)c1ccc2c(n1)CCN(C(=O)NCc1ccccc1)C2 [Compound I-25, N^6-benzyl-N^2-hydroxy-7,8-dihydro-1,6-naphthyridine-2,6(5H)-dicarboxamide] |
| 94% | O=C(NO)c1cnc2c(c1)CCN(C(=O)C13CC4CC(CC(O)(C4)C1)C3)C2 [Compound I-26, N-hydroxy-7-[(3-hydroxy-1-adamantyl)carbonyl]-5,6,7,8-tetrahydro-1,7-naphthyridine-3-carboxamide] |
| 39% | CC(C)(C)NC(=O)N1CCc2nc(C(=O)NO)ccc2C1 [Compound I-45, N^6-(tert-butyl)-N^2-hydroxy-7,8-dihydro-1,6-naphthyridine-2,6(5H)-dicarboxamide] |
| 95.2% | CC1(C(=O)N2CCc3cc(C(=O)NO)cnc3C2)CCCCC1 [Compound I-9, N-hydroxy-7-[(1-methylcyclohexyl)carbonyl]-5,6,7,8-tetrahydro-1,7-naphthyridine-3-carboxamide] |
| 51.2% | Cc1nc(C(=O)N2CCc3nc(C(=O)NO)ccc3C2)cs1 [Compound I-27, N-hydroxy-6-[(2-methyl-1,3-thiazol-4-yl)carbonyl]-5,6,7,8-tetrahydro-1,6-naphthyridine-2-carboxamide] |
| 79.5% | CC1(C(=O)N2CCc3nc(C(=O)NO)ccc3C2)CCCCC1 [Compound I-19, N-hydroxy-6-[(1-methylcyclohexyl)carbonyl]-5,6,7,8-tetrahydro-1,6-naphthyridine-2-carboxamide] |
